Measured values from patent US12275731B2, “Azaindole inhibitors of wild-type and mutant forms of LRRK2” (DANA-FARBER CANCER INSTITUTE, INC., priority 2018, dated 2025).

Tests used:
Assay in all cases: KinomeScan profiling
Format in all cases: binding
[1] = biological target: T1, ABL1(M351T)-phosphorylated (Homo sapiens, UniProt P00519, M351T); settings: read-out: % control
T1 construct: purchased KinomeScan®
Method in brief: (§1)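 Percent-of-control values derive from RLU, calculated as (test − positive)/(negative − positive) × 100, where DMSO defines 100% and a positive control compound defines 0%. Each compound was tested at 1 μM in the 468-kinase panel; sub-35% readings indicate activity.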

AMPK-alpha2 = biological target: T2, AMPK-alpha2 (Homo sapiens, UniProt P54646); settings: AMPK-alpha2, 1 μM; read-out: % control
T2 construct: purchased KinomeScan®
Method in brief: as §1

CAMK1B = CAMK1B (Homo sapiens, UniProt Q6P2M8); settings: read-out: % control
Method in brief: as §1

FLT3(N841I) = biological target: T3, FLT3(N841I) (Homo sapiens, UniProt P36888, N841I); settings: read-out: % control
T3 sequence (P36888 27-993 N841I): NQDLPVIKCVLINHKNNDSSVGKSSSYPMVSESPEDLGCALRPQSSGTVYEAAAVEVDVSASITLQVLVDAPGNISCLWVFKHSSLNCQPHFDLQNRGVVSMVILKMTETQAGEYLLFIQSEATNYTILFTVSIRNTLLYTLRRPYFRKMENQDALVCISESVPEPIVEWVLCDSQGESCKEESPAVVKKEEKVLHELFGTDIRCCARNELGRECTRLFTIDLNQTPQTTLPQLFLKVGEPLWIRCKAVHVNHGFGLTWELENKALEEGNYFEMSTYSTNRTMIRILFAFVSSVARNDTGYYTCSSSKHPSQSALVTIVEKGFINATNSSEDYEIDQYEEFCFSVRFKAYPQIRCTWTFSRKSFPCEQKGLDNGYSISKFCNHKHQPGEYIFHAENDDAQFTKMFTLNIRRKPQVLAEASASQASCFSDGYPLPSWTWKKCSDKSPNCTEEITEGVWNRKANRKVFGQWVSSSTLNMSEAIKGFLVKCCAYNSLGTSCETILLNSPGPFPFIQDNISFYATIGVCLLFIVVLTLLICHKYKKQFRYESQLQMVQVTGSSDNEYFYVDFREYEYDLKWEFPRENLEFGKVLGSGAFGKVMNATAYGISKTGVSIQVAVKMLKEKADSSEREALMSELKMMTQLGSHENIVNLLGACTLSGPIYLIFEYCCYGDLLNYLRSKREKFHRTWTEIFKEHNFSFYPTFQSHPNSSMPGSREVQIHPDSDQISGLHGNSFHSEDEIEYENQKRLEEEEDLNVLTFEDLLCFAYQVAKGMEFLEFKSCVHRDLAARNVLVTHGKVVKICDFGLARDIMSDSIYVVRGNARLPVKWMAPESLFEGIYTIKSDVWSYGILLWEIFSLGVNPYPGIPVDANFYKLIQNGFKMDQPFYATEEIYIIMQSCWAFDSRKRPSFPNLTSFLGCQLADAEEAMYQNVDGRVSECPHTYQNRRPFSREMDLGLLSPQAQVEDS
Method in brief: as §1

GRK2 = biological target: T4, GRK2 (Homo sapiens, UniProt P25098); settings: GRK2, 1 μM; read-out: % control
T4 sequence (P25098 1-689): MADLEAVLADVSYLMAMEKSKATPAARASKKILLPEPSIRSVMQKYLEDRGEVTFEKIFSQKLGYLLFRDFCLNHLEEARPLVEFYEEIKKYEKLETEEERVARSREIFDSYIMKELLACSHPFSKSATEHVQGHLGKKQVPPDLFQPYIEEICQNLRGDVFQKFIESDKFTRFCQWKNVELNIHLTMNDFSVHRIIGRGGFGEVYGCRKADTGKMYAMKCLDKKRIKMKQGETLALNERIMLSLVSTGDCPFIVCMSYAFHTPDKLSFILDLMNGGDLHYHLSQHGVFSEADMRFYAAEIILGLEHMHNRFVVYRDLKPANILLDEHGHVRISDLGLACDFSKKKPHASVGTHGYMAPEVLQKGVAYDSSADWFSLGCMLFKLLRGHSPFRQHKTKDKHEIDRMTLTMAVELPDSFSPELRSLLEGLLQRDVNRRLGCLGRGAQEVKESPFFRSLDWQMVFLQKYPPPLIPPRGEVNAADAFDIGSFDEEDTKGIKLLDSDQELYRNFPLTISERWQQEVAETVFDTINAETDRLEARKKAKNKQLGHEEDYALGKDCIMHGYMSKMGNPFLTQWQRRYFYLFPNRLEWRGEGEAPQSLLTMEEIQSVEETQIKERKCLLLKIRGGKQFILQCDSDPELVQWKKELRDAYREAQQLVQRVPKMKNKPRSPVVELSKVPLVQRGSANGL
Method in brief: as §1

MARK1 = MARK1 (Homo sapiens, UniProt Q9P0L2); settings: MARK1, 1 μM; read-out: % control
Method in brief: as §1

MYO3A = MYO3A (Homo sapiens, UniProt Q8NEV4); settings: read-out: % control
Method in brief: as §1

PAK1 = PAK1 (Homo sapiens, UniProt Q13153); settings: PAK1, 1 μM; read-out: % control
Method in brief: as §1

PCTK2 = PCTK2 (Homo sapiens, UniProt Q00537); settings: PCTK2, 1 μM; read-out: % control
Method in brief: as §1

PRKX = biological target: T5, PRKX (Homo sapiens, UniProt P51817); settings: read-out: % control
T5 sequence (P51817 1-358): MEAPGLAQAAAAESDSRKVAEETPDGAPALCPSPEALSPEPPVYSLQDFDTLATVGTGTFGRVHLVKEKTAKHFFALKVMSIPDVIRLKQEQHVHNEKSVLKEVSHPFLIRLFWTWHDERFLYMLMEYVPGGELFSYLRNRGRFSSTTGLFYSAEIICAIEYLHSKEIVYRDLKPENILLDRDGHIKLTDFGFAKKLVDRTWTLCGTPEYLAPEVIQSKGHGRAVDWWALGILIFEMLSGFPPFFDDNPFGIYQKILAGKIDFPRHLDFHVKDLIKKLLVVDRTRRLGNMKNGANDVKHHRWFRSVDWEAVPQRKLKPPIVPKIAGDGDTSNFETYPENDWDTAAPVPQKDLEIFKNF
Method in brief: as §1

TIE1 = TIE1 (Homo sapiens, UniProt P35590); settings: TIE1, 1 μM; read-out: % control
Method in brief: as §1

CAMK1B, sequence (Q6P2M8 whole entry): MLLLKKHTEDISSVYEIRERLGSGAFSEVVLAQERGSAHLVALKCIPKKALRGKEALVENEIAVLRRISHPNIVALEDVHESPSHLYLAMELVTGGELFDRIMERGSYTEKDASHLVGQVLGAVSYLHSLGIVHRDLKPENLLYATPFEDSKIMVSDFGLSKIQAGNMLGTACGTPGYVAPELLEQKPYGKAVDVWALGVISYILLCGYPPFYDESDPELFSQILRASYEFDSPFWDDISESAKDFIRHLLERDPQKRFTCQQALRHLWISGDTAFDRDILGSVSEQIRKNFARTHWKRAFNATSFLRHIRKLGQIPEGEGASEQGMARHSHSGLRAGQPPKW
TIE1, sequence (P35590 22-1138): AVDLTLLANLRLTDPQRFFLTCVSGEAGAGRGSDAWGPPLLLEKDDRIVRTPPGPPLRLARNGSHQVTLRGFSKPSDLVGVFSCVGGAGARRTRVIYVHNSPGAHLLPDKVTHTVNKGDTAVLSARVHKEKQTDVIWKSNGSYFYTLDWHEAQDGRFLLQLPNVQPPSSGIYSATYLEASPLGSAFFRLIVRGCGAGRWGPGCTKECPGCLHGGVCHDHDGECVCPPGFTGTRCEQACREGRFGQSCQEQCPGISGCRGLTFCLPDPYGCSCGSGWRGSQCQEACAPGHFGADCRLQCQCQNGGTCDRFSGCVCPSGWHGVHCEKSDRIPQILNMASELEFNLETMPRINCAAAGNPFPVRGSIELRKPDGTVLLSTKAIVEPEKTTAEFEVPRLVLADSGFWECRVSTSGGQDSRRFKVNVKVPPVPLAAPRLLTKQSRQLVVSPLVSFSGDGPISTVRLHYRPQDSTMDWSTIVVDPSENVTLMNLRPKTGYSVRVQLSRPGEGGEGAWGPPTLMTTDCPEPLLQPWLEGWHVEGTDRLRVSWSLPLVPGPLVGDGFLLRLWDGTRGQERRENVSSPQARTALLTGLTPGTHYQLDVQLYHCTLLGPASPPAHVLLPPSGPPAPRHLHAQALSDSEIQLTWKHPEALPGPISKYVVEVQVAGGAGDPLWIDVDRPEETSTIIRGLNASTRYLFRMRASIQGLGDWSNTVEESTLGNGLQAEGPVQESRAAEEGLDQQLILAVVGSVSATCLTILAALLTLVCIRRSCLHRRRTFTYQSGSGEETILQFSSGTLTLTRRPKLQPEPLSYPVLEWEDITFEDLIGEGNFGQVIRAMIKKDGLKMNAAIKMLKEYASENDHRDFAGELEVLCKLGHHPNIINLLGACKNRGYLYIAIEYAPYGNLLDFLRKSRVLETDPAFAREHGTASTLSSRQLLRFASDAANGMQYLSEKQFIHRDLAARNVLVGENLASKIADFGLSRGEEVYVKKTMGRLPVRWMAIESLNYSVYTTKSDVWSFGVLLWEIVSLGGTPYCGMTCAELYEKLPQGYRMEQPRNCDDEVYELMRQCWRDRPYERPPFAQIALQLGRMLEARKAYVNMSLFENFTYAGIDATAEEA
PAK1, sequence (Q13153 whole entry): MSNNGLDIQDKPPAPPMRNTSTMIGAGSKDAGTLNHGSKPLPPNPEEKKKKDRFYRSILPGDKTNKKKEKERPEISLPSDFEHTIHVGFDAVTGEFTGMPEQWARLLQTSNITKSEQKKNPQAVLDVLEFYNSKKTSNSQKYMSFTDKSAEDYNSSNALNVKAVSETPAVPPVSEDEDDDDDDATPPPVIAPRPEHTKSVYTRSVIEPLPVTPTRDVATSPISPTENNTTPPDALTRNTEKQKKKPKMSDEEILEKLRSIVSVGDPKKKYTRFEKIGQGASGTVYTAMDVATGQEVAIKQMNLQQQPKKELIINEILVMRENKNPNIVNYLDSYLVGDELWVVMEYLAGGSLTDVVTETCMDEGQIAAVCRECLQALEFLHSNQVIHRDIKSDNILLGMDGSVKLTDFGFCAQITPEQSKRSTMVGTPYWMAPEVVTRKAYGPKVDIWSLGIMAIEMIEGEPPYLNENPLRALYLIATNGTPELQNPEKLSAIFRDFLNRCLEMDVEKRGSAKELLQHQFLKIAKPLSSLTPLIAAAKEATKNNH
PCTK2, sequence (Q00537 whole entry): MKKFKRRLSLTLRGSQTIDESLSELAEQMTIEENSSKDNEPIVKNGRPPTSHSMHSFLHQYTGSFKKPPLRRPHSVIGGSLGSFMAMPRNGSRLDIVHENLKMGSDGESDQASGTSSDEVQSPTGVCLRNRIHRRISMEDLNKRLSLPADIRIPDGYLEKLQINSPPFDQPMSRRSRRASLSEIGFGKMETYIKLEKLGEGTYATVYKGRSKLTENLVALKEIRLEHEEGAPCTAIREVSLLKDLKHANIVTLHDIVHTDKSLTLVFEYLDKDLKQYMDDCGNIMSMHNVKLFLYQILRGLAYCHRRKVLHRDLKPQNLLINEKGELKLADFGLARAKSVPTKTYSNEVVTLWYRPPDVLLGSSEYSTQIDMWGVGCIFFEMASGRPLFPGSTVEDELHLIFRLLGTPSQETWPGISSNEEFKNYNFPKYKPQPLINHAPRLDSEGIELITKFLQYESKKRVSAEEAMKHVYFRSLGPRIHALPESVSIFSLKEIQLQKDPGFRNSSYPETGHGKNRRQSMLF
MARK1, sequence (Q9P0L2 whole entry): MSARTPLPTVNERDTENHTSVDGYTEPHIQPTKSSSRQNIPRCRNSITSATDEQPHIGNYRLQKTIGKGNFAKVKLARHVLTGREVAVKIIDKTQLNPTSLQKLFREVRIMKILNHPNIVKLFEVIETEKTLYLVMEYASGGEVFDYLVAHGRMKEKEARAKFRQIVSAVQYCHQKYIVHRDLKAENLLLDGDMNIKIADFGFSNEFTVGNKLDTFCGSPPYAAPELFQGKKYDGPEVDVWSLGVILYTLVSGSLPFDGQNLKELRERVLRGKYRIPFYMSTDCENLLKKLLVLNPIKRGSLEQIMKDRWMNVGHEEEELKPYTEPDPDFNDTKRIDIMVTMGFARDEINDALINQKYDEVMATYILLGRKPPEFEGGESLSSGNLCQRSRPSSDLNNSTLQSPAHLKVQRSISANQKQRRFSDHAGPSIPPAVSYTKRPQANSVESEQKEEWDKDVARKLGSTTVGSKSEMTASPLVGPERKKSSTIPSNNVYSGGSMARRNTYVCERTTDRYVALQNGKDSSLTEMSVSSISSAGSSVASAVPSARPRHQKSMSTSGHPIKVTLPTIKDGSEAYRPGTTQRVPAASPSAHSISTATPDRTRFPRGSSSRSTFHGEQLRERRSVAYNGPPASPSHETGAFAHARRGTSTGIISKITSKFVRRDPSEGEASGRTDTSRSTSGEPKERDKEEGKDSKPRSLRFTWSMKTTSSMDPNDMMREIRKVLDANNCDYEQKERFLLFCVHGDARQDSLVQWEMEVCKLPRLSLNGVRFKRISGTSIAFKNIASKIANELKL
MYO3A, sequence (Q8NEV4 whole entry): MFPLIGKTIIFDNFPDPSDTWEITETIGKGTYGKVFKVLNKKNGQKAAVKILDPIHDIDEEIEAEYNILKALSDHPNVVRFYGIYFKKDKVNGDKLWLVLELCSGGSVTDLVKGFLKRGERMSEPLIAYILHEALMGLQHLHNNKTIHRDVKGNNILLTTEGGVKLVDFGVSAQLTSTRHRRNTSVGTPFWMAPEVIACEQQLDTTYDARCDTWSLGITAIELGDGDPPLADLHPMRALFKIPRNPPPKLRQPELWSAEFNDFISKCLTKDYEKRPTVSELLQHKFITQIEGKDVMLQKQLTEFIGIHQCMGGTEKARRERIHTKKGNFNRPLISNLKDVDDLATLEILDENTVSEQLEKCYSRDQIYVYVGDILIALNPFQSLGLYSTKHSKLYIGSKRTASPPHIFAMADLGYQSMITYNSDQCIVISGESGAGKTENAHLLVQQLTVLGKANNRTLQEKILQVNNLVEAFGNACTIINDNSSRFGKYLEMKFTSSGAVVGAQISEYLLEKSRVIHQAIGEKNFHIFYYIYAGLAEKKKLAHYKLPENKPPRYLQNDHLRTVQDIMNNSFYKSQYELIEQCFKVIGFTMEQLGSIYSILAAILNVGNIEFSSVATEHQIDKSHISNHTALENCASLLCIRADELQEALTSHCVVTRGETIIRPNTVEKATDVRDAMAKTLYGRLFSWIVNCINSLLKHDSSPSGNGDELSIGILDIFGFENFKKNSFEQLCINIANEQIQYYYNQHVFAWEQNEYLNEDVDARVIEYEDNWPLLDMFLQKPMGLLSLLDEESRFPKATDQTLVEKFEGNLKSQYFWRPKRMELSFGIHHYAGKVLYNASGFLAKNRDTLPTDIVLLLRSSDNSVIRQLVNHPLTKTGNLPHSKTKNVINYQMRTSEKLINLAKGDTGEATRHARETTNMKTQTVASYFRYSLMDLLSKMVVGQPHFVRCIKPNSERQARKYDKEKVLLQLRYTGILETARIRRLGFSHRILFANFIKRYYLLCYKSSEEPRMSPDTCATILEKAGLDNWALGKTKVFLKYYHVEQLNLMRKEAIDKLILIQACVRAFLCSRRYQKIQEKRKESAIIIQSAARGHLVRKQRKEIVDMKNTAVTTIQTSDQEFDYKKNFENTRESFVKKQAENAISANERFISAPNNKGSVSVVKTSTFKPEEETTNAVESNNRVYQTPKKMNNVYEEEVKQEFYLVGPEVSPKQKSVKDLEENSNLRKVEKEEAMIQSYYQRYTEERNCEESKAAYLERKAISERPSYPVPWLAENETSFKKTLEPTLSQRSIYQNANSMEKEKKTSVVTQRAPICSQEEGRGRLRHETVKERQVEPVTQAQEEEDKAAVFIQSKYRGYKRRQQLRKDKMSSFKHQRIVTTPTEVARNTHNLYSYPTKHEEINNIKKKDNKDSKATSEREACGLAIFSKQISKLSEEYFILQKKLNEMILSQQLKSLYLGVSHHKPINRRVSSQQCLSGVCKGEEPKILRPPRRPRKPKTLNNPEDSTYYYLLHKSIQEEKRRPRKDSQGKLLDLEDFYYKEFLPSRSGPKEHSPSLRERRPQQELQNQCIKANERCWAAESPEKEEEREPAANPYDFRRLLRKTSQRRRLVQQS

SMILES | remaining binding at 1 µM [1] | remaining binding at 1 µM (AMPK-alpha2) | remaining binding at 1 µM (CAMK1B) | remaining binding at 1 µM (FLT3(N841I)) | remaining binding at 1 µM (GRK2) | remaining binding at 1 µM (MARK1) | remaining binding at 1 µM (MYO3A) | remaining binding at 1 µM (PAK1) | remaining binding at 1 µM (PCTK2) | remaining binding at 1 µM (PRKX) | remaining binding at 1 µM (TIE1)
CNc1c(-c2cnn([C@H]3CCN(C(C)=O)C[C@@H]3F)c2)cnc2[nH]cc(Cl)c12 [Compound 77, 1-((3S,4S)-4-(4-(3-chloro-4-(methylamino)-1H-pyrrolo[2,3-b]pyridin-5-yl)-1H-pyrazol-1-yl)-3-fluoropiperidin-1-yl)ethan-1-one] | 75% | 99% | 74% | 1% | 93% | 71% | 69% | 99% | 100% | 100% | 97%
CNc1c(-c2ccc(C(=O)N3CCC(N4CCOCC4)CC3)cc2)cnc2[nH]cc(Cl)c12 [Compound 96, (4-(3-chloro-4-(methylamino)-1H-pyrrolo[2,3-b]pyridin-5-yl)phenyl)(4-morpholinopiperidin-1-yl)methanone] | 71% | 66% | 87% | 14% | 94% | 72% | 64% | 99% | 97% | 100% | 93%
O=C(c1ccc(-c2cnc3[nH]cc(Cl)c3c2NC2CCCC2)cc1)N1CCC(N2CCOCC2)CC1 [Compound 101, (4-(3-chloro-4-(cyclopentylamino)-1H-pyrrolo[2,3-b]pyridin-5-yl)phenyl)(4-morpholinopiperidin-1-yl)methanone] | 93% | 55% | 69% | 2.6% | 100% | 80% | 100% | 100% | 96% | 82% | 92%
